Test results reported in patent publication US6737383B1, “Herbicidal oxadiazolidines” (priority 1999, dated 2004).

Legend:
giant foxtail = test: Test B pre/postemergence giant foxtail; type: in vivo, Setaria faberii
Procedure, shortened: (§1)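 Herbicidal effect was estimated by eye on a ten-point control scale after plants spent twelve to sixteen days in a greenhouse following soil or foliar treatment. Foliar sprays targeted plants at one to four leaves; all doses were formulated in a non-phytotoxic solvent with surfactant.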

pigweed = test: Test B pre/postemergence pigweed; type: in vivo, Amaranthus retroflexus
Procedure, shortened: as §1

corn = test: Test B pre/postemergence corn; type: in vivo, Zea mays
Procedure, shortened: as §1

rice = test: Test B flood test rice; type: in vivo, Oryza sativa
Procedure, shortened: (§2)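 Flood test on plants grown to the 2-leaf stage; treated plants kept in greenhouse twelve to sixteen days, then visually rated against controls on a 0 (no effect) to 10 (complete control) scale.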

bamyardgrass = test: Test B flood test barnyardgrass; type: in vivo, Echinochloa crus-galli
Procedure, shortened: as §2

surinam grass = test: Test B pre/postemergence surinam grass; type: in vivo, Brachiaria decumbens
Procedure, shortened: as §1

crabgrass = test: Test B pre/postemergence crabgrass; type: in vivo, Digitaria sanguinalis
Procedure, shortened: as §1

cocklebur = test: Test B pre/postemergence cocklebur; type: in vivo, Xanthium strumarium
Procedure, shortened: as §1

morningglory = test: Test B pre/postemergence morningglory; type: in vivo, Ipomoea hederacea
Procedure, shortened: as §1

soybean = test: Test B pre/postemergence soybean; type: in vivo, Glycine max
Procedure, shortened: as §1

smallflower flatsedge = test: Test B flood test smallflower flatsedge; type: in vivo, Cyperus difformis
Procedure, shortened: as §2

purple nutsedge = test: Test B pre/postemergence purple nutsedge; type: in vivo, Cyperus rotundus
Procedure, shortened: as §1

sugar beet = test: Test B pre/postemergence sugar beet; type: in vivo, Beta vulgaris
Procedure, shortened: as §1

wild oat = test: Test B pre/postemergence wild oat; type: in vivo, Avena fatua
Procedure, shortened: as §1

duck salad = test: Test B flood test duck salad; type: in vivo, Heteranthera limosa
Procedure, shortened: as §2

rape = test: Test B pre/postemergence rape; type: in vivo, Brassica napus
Procedure, shortened: as §1

[1] = Preemergence, Rate 62 g/ha, scale of 0 to 10 where 0 is no effect and 10 is complete control
[2] = Preemergence, Rate 250 g/ha, scale of 0 to 10 where 0 is no effect and 10 is complete control
[3] = Preemergence, Rate 500 g/ha, scale of 0 to 10 where 0 is no effect and 10 is complete control
[4] = Rate 62 g/ha, Postemergence, scale 0 to 10 (0 no effect, 10 complete control)
[5] = Rate 125 g/ha, Postemergence, scale of 0 to 10 where 0 is no effect and 10 is complete control
[6] = Rate 250 g/ha, Postemergence, scale of 0 to 10 where 0 is no effect and 10 is complete control
[7] = Rate 500 g/ha, Postemergence, scale 0 to 10, 0 no effect, 10 complete control
[8] = Rate 62 g/ha, headed Pre-emergence (flood test species), scale 0 to 10 (0 no effect, 10 complete control)
[9] = Rate 125 g/ha, Pre-emergence, flood test species, scale 0 to 10 where 0 is no effect and 10 is complete control
[10] = Rate 250 g/ha, Pre-emergence, flood-test species, scale 0 to 10, 0 is no effect, 10 is complete control
[11] = Rate 500 g/ha, Pre-emergence, flood test species, scale 0 to 10 (0 no effect, 10 complete control)

Cc1cccc(C(C)(C)C)c1-n1c(=O)on(C(=O)N(c2ccccc2)C(C)C)c1=O [Compound 303]
0: Giant foxtail plant response rating (giant foxtail; [1]) | Giant foxtail plant response rating (0 to 10 scale) (giant foxtail; Preemergence, Rate 125 g/ha) | Giant foxtail plant response rating (giant foxtail; [2]) | Giant foxtail plant response rating (giant foxtail; [3]) | Giant foxtail plant response rating (giant foxtail; [4]) | Giant foxtail plant response rating (giant foxtail; [5]) | Plant response rating, Giant foxtail (giant foxtail; [6]) | Redroot pigweed plant response rating (pigweed; [1]) | Redroot pigweed plant response rating (0 to 10 scale) (pigweed; Preemergence, Rate 125 g/ha) | Redroot pigweed plant response rating (pigweed; [2]) | Redroot pigweed plant response rating (pigweed; [3]) | Redroot pigweed plant response rating (pigweed; [4]) | Redroot pigweed plant response rating (pigweed; [5]) | Corn plant response rating (corn; [1]) | Corn plant response rating (0 to 10 scale) (corn; Preemergence, Rate 125 g/ha) | Corn plant response rating (corn; [2]) | Corn plant response rating (corn; [3]) | Corn plant response rating (corn; [4]) | Corn plant response rating (corn; [5]) | Plant response rating, Corn (corn; [6]) | Corn plant response rating (corn; [7]) | Rice plant response rating (rice; [8]) | Rice plant response rating (rice; [9]) | Rice plant response rating (rice; [10]) | Rice plant response rating (rice; [11]) | Barnyardgrass plant response rating (bamyardgrass; [8]) | Barnyardgrass plant response rating (bamyardgrass; [9]) | Barnyardgrass plant response rating (bamyardgrass; [10]) | Barnyardgrass plant response rating (bamyardgrass; [11]) | B. signalgrass plant response rating (surinam grass; [1]) | B. signalgrass plant response rating (0 to 10 scale, 0 is no effect, 10 is complete control) (surinam grass; Preemergence, Rate 125 g/ha) | B. signalgrass plant response rating (surinam grass; [2]) | B. signalgrass plant response rating (surinam grass; [3]) | B. signalgrass plant response rating (surinam grass; [4]) | B. signalgrass plant response rating (surinam grass; [5]) | Plant response rating, B. signalgrass (surinam grass; [6]) | B. signalgrass plant response rating (surinam grass; [7]) | Crabgrass plant response rating (crabgrass; [1]) | Crabgrass plant response rating (0 to 10 scale) (crabgrass; Preemergence, Rate 125 g/ha) | Crabgrass plant response rating (crabgrass; [2]) | Crabgrass plant response rating (crabgrass; [4]) | Crabgrass plant response rating (crabgrass; [5]) | Plant response rating, Crabgrass (crabgrass; [6]) | Cocklebur plant response rating (cocklebur; [1]) | Cocklebur plant response rating (0 to 10 scale) (cocklebur; Preemergence, Rate 125 g/ha) | Cocklebur plant response rating (cocklebur; [2]) | Cocklebur plant response rating (cocklebur; [3]) | Cocklebur plant response rating (cocklebur; [4]) | Cocklebur plant response rating (cocklebur; [5]) | Plant response rating, Cocklebur (cocklebur; [6]) | Cocklebur plant response rating (cocklebur; [7]) | Morningglory plant response rating (morningglory; [1]) | Morningglory plant response rating (0 to 10 scale) (morningglory; Preemergence, Rate 125 g/ha) | Morningglory plant response rating (morningglory; [2]) | Morningglory plant response rating (morningglory; [4]) | Morningglory plant response rating (morningglory; [5]) | Plant response rating, Morningglory (morningglory; [6]) | Soybean plant response rating (soybean; [1]) | Soybean plant response rating (0 to 10 scale) (soybean; Preemergence, Rate 125 g/ha) | Soybean plant response rating (soybean; [2]) | Soybean plant response rating (soybean; [3]) | S. Flatsedge plant response rating (smallflower flatsedge; [8]) | S. Flatsedge plant response rating (smallflower flatsedge; [9]) | S. Flatsedge plant response rating (smallflower flatsedge; [10]) | S. Flatsedge plant response rating (smallflower flatsedge; [11]) | Nutsedge plant response rating (purple nutsedge; [1]) | Nutsedge plant response rating (purple nutsedge; [2]) | Nutsedge plant response rating (purple nutsedge; [3]) | Nutsedge plant response rating (purple nutsedge; [4]) | Nutsedge plant response rating (purple nutsedge; [5]) | Plant response rating, Nutsedge (purple nutsedge; [6]) | Sugarbeets plant response rating (sugar beet; [1]) | Sugarbeets plant response rating (0 to 10 scale) (sugar beet; Preemergence, Rate 125 g/ha) | Sugarbeets plant response rating (sugar beet; [2]) | Sugarbeets plant response rating (sugar beet; [3]) | Sugarbeets plant response rating (sugar beet; [4]) | Sugarbeets plant response rating (sugar beet; [5]) | Plant response rating, Sugarbeets (sugar beet; [6]) | Wild oats plant response rating (wild oat; [1]) | Wild oats plant response rating (0 to 10 scale) (wild oat; Preemergence, Rate 125 g/ha) | Wild oats plant response rating (wild oat; [2]) | Wild oats plant response rating (wild oat; [3]) | Wild oats plant response rating (wild oat; [4]) | Wild oats plant response rating (wild oat; [5]) | Plant response rating, Wild oats (wild oat; [6]) | Ducksalad plant response rating (duck salad; [8]) | Ducksalad plant response rating (duck salad; [9]) | Ducksalad plant response rating (duck salad; [10]) | Ducksalad plant response rating (duck salad; [11]) | Rape plant response rating (rape; [1]) | Rape plant response rating (0 to 10 scale) (rape; Preemergence, Rate 125 g/ha) | Rape plant response rating (rape; [2]) | Rape plant response rating (rape; [3]) | Rape plant response rating (rape; [4]) | Rape plant response rating (rape; [5]) | Plant response rating, Rape (rape; [6])
2: Plant response rating, Redroot pigweed (pigweed; [6]) | Soybean plant response rating (soybean; [4]) | Soybean plant response rating (soybean; [5])
3: Morningglory plant response rating (morningglory; [3]) | Plant response rating, Soybean (soybean; [6])
